Measurements: patent US20220177520A1, “PEPTIDES INHIBITING ANDROGEN RECEPTOR ACTIVITY, AND COSMETICS COMPOSITION USING SAME” (SUPADELIXIR INC., priority 2019, published 2022)

Experiments:
[1] = test system: androgen receptor; test: PSA expression in DHT-treated prostate cancer cells (Western blot); type: cell-based; settings: LNCaP cells, DHT 20 nM plus AR Pep1 1, 10, 100 μM, 24 hours, versus DHT only; FIG. 1
Method: 1. Prostate cancer cells (LNCaP) were prepared at a density of 5×10^6 cells per well, treated with DHT at a concentration of 20 nM and with AR Pep1 at a concentration of 1, 10, 100 μM respectively, then cultured in an incubator at 37° C. in the presence of 5% CO2 for 24 hours. As a control group, one with no treatment at all and one treated only with DHT were used. The cancer cells were washed with PBS three times, and lysed with 1% NP40 lysis buffer (1% Nonidet P40, 0.1 M NaCl, 0.05 M tris (pH 8.0), 5 mM EDTA) containing […] PMSP (phenylmethylsulfonyl fluoride), 1 μg/ml pepstatin A, 10 μg/ml leupeptin, 1 μg/ml aprotinin and 1 mM Na3VO4.
2. The cell lysate was quantified using Bradford assay to prepare a protein sample for electrophoresis.
Immunoprecipitates were subjected to 12.5% polyacrylamide gel electrophoresis, then the unfolded protein was transferred onto a nitrocellulose membrane, treated with a blocking solution (Tris-buffered saline (TBS) containing 0.05% Tween 20 and 3% bovine serum albumin) for about one hour at room temperature. Then, the membrane was suspended in TBS buffer containing Anti-PSA polyclonal antibody (Santa cruz, CA, USA) for two hours and washed with TBS buffer containing 0.05% Tween 20. […]

[2] = target: T1, AR and POL II (Homo sapiens, UniProt P10275); test: Physical binding of AR and POL II in DHT-treated human keratinocytes (in situ PLA); type: cell-based; settings: HaCaT cells, DHT 20 nM plus AR Pep1 20 nM, 1, 10, 100 μM, 24 hours, versus DHT only; FIG. 2
T1 construct: Human keratinocytes (HaCaT) were prepared at a density of 4.5×10^4 cells per well, treated with DHT; endogenous in cells; host or cells: HaCaT human keratinocytes
T1 sequence (P10275 1-920): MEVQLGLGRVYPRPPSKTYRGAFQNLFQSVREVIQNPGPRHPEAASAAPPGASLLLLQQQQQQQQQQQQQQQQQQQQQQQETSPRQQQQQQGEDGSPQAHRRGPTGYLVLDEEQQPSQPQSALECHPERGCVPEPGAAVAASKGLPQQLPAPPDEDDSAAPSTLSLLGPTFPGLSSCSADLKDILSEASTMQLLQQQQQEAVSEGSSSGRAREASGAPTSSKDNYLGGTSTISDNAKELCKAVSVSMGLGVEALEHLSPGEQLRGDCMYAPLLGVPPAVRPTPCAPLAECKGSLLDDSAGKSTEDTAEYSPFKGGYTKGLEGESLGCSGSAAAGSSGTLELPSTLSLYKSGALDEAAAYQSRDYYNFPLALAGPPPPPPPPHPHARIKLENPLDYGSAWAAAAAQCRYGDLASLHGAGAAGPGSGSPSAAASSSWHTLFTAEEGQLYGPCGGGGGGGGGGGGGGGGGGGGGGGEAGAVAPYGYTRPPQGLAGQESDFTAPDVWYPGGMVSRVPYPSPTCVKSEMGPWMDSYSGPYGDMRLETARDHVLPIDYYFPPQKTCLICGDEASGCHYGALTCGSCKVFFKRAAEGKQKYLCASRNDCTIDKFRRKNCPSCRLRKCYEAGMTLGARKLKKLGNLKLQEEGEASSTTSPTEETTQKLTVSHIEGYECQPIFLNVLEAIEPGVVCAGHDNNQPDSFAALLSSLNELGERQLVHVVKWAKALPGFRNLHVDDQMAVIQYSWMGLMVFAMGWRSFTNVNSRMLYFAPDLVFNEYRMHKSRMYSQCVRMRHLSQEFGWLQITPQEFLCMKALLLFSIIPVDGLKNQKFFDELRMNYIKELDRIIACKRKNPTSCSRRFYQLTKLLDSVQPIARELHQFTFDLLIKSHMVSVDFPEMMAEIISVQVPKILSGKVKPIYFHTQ
Method: 1. Human keratinocytes (HaCaT) were prepared at a density of 4.5×10^4 cells per well, treated with DHT at a concentration of 20 nM and with AR Pep1 at a concentration of 20 nM, 1, 10, 100 μM respectively, then cultured in an incubator at 37° C. in the presence of 5% CO2 for 24 hours. As a control, one with no treatment at all and one treated only with DHT were used. The cells in each well were washed with PBS, fixed in 2% formaldehyde for five minutes, and treated with 0.1% TritonX-100 for five minutes to enhance antibody permeability into cells. Then, Anti-AR polyclonal antibody (Santa cruz, USA) and Anti-POL II monoclonal antibody (Santa cruz, USA) were added, PLA probe was applied using In situ PLA kit (Sigma-Aldrich), and steps of hybridization, ligation, amplification, and mounting were performed.
2. Luminescence signals (PLA signals) detected from each cell were measured with a confocal laser microscope (Olympus fluoview FW1000; Olympus, Japan), physical interaction between the AR and POL II antibodies was quantified.

Asp-Lys-Phe (DKF; Peptide 1) [AR Pep1] was tested, and the “expression of prostate-specific antigen (PSA)” value [1] was “expression of the PSA was reduced” and the “physical interaction between the AR and POL II (PLA signals)” value [2] was “the increase in that interaction was reduced”.
